From patent US20260088132A1, “CHEMICAL PAINTING” (The Trustees of Columbia University in the City of New York, priority 2023, published 2026)
Structures can show the parent of a compound that is named as a salt.

Tests used:
Format in all cases: cell-based, human
MDA-MB-231 cells [1] = assay: Novelty detection of drug MoA on single-cell Chemical Painting data (LDA, Mahalanobis distance, isolation forest); conditions: test compounds; for Mean score: dynamic range [1, −1], below 0.1 detected as novel; for Outlier %: single-cell data predicted as outliers (novel); for Prediction: MoA predicted as known class or novel
Source text: We specifically designed an algorithm for Chemical Painting to identify drugs with novel MoAs, using the dataset and model in drug MoA prediction as an annotated reference. In this algorithm, the first step is to calculate the Mahalanobis distance between single-cell data from test compound and each reference class in the trained LDA model. The class with the minimum distance represents the known drug closest to the test compound. Next, isolation forest, is introduced to determine whether the test compound is novel to the selected known drug class. The prediction output in this step is 1 as inliers (known) and −1 as outliers (novel) for each single-cell data from the test compound. […] Test compound with a mean prediction score below the threshold value is detected as novel.
(§1) Sample preparation for drug-treated cells with labeling. MDA-MB-231 cells were seeded on clean CaF2 substrates with 5×10^4 cells per well in cell culture media (DMEM, 10% FBS, 1% penicillin) overnight. Then the culture media was replaced by ^13C-amino acids DMEM with 50 μM azido-palmitic acid, 50 μM d34 oleic acid, either single drug at its IC50 concentration or drug combinations at chosen concentrations. Drugs were prepared in 100% DMSO and diluted to 0.1% DMSO in labeling media. For the control group, only cell labeling media with 0.1% DMSO was added (without any drugs). Cells were treated for 48 hrs. After that, cells were fixed by 4% PFA at room temperature for 15 min and washed three times with PBS buffer and five times with dd-H2O. The samples were then air-dried before imaging.
(§2) FTIR imaging. Agilent Cary 620 Imaging FTIR equipped with an Agilent 670-IR spectrometer and 128×128-pixels FPA mercury cadmium telluride (MCT) detector was used in the transmission mode. A background spectrum was collected on a clean CaF2 substrate using 128 scans at 8 cm-1 spectral resolution. Cell spectra were recorded using 64-128 scans at 8 cm-1 spectral resolution. A ×25 IR objective (pixel size, 3.3 um, 0.81 numerical aperture (NA)) was used for cell imaging.
Machine learning. The tests of all the machine learning classifiers were performed using Python (Scikit-learn). Specifically, single-cell data was split into 70% training and 30% testing with labels corresponding to drug MoAs. The hyper-parameters of each classifier were carefully tuned using RandomizedSearchCv in Scikit-learn. The performances of these classifiers were evaluated in the testing dataset using accuracy as the main metric. To test the performance of classifiers on batch effects, single-cell data collected from different batches were loaded as another testing dataset. For feature importances of LDA classifier, permutation feature importance (Scikit-learn) was used. The intrinsic feature importance values from random forest classifier were also extracted.
Novelty detection algorithm. In the first step, the Mahalanobis distances between the test compound and each reference class in the annotated dataset were calculated by home-built codes in python. Drug class with minimum distance was selected. Next, isolation forest, which is available in Python, was imported to predict whether single-cell data from the test compound is known (inliers) or novel (outliers) to the selected drug class. The mean of the prediction results from single-cell data is reported as mean prediction score.

MDA-MB-231 cells [2] = assay: Chemical Painting: single-cell metabolic responses by FTIR imaging with three IR-active vibrational probes; conditions: drug at its IC50 concentration, 48 hrs, compared with control
Experimental: The first step is to add the three vibrational probes and the tested drug at its IC50 concentration to the cell culture media and co-cultured for 48 hrs. After that, cells are fixed and air-dried. Then Fourier transformed infrared (FTIR) imaging, a modality of MIR imaging, was performed to collect the full spectral data of cells. The collection speed is around 2 cells/second for human cancer cells with sufficient co-scans (˜64 scans). In the following data analysis, quality test, baseline correction and data normalization were included for data preprocessing (Methods). Next, single-cell segmentation was performed with open-source software CellProfiler to generate masks. These masks can be further used to extract single-cell IR spectrum from the MIR imaging data, forming the single-cell biochemical profile. We then introduced a series of analytical methods for the downstream analysis, including machine learning, novelty detection and statistical methods to map cell phenotypes and identify drug MoAs. Overall, the workflow of Chemical Painting is straightforward in experimental operations and effected in single-cell data analysis, which laid the foundation for this method to reveal valuable insights toward phenotypic profiling and potential drug discovery.
Systematic sensitivity and generalizability evaluation of Chemical Painting toward a broad range of drugs: It remains unknown whether our method has sufficient sensitivity to differentially discriminate cell responses to different drugs. To evaluate its sensitivity we tested 13 drugs belonging to 9 different drug MoAs. These drugs can be separated into two main panels: one consists of drugs that inhibit general metabolism; another one contains drugs targeting specific proteins or interfering with particular metabolic pathways. The single-cell metabolic responses toward different drug treatment were visualized in the 3D scatter plots where x-axis represents saturated FA metabolism (azido-PA/CH2), y-axis represents unsaturated FA metabolism (d34OA/CH2), and z-axis represents protein synthesis (^13C amide I/(^13C amide I+^12C amide I)). The use of ratios is meant for more accurate quantification of metabolic activities. Each dot represents the metabolic responses of an individual cell in the plots.
as §1, §2
Data preprocessing. […]

MDA-MB-231 cells [3] = assay: Cell viability assay (Alamar blue) for drug IC50; conditions: single drug, 48 hrs; for half of the IC50 values: concentration added in combination groups
Source text: Another aspect to consider is how to ensure the cells are in a similar state under different categories of drug treatments. To achieve this, we measured the half maximal inhibitory concentration (IC50) of different drugs separately by cell viability assays in 48 hrs, in agreement with the probe culturing time. This method is commonly used in pharmaceutical studies to compare the effect of various products. Besides the experimental operations, data analysis is vital to the obtained large-scale data to map cell phenotypes after drug perturbation. We thus built a complete analytical pipeline for Chemical Painting, including data preprocessing, single-cell segmentation, single-cell biochemical profile extraction and downstream analysis.
Cell viability assay and drug IC50 calculus. The IC50 values of the drugs were determined by Alamar blue assay. Cells were seeded at 10,000 per well in 96-well plates. After 24 h, the cells were washed twice with phosphate buffered saline (PBS) and treated with drugs at different concentrations in cell culture media for 48 hrs. Each drug concentration has 6-8 replicates. After the drug treatments, cells were washed with PBS twice and the cell viability was determined by Alamar blue assay following the manufacturer's protocol (Invitrogen) using plate reader. The IC50 values were determined by fitting the data using a dose response model with variable Hill slope built in Prism.

| Compound | Mean score (MDA-MB-231 cells [1]) | Outlier % (MDA-MB-231 cells [1]) | Prediction (MDA-MB-231 cells [1]) | protein synthesis (13C amide I/(13C amide I+12C amide I)) (MDA-MB-231 cells [2]) | saturated FA metabolism (azido-PA/CH2) (MDA-MB-231 cells [2]) | unsaturated FA metabolism (d34OA/CH2) (MDA-MB-231 cells [2]) | also measured |
| --- | --- | --- | --- | --- | --- | --- | --- |
| CCC(=O)CCCCC[C@@H]1NC(=O)[C@H]2CCCCN2C(=O)[C@H]([C@@H](C)CC)NC(=O)[C@H](Cc2cn(OC)c3ccccc23)NC1=O [Apicidin] | −0.5289 | 76.45% |  |  |  |  |  |
| COc1cccc2c1C(=O)c1c(O)c3c(c(O)c1C2=O)C[C@@](O)(C(C)=O)C[C@@H]3O[C@H]1C[C@H](N)[C@H](O)[C@H](C)O1 [Daunorubicin, Daunorubicin hydrochloride] |  | 7.515% | DNA intercalation |  |  |  | Mean score (MDA-MB-231 cells [1]; hydrochloride): 0.8497; Mean score (MDA-MB-231 cells [1]; listed as daunorubicin, hydrochloride): high |
| CC[C@H]1CN2CCc3cc(OC)c(OC)cc3[C@@H]2C[C@@H]1C[C@H]1NCCc2cc(OC)c(OC)cc21 [Emetine, emetine] | 0.6208 | 18.96% | Protein |  |  |  | Mean score (MDA-MB-231 cells [1]; listed as emetine): high |
| NC(=O)c1ccc(I)c([N+](=O)[O-])c1 [Iniparib, iniparib] | −0.9923 | 99.62% | Novel |  |  |  | Mean score (MDA-MB-231 cells [1]; listed as iniparib): quite negative |
| CC(=O)O[C@H]1C(=O)[C@@]2(C)[C@H]([C@H](OC(=O)c3ccccc3)[C@]3(O)C[C@H](OC(=O)[C@H](O)[C@@H](NC(=O)c4ccccc4)c4ccccc4)C(C)=C1C3(C)C)[C@]1(OC(C)=O)CO[C@@H]1C[C@@H]2O [Taxol] | −0.5052 | 75.26% | Novel |  |  |  |  |
| CC[C@]1(O)C[C@H]2CN(CCc3c([nH]c4ccccc34)[C@@](C(=O)OC)(c3cc4c(cc3OC)N(C=O)[C@H]3[C@@](O)(C(=O)OC)[C@H](OC(C)=O)[C@]5(CC)C=CCN6CC[C@]43[C@@H]65)C2)C1 [Vincristine] | −0.9466 | 97.33% | Novel |  |  |  |  |
| CC(C)C[C@H](NC(=O)[C@H](Cc1ccccc1)NC(=O)c1cnccn1)B(O)O [bortezomib] |  |  |  | more evidently decreased | reduced | reduced |  |
| C[C@@H]1C[C@@H]([C@H](O)CC2CC(=O)NC(=O)C2)C(=O)[C@@H](C)C1 [cycloheximide] |  |  |  | much lower |  |  |  |
| COc1cccc2c1C(=O)c1c(O)c3c(c(O)c1C2=O)C[C@@](O)(C(=O)CO)C[C@@H]3O[C@H]1C[C@H](N)[C@H](O)[C@H](C)O1 [doxorubicin, doxorubicin hydrochloride] |  |  |  | largely inhibited | largely inhibited | largely inhibited |  |
| CO[C@H]1C[C@@H]2CC[C@@H](C)[C@@](O)(O2)C(=O)C(=O)N2CCCC[C@H]2C(=O)O[C@H]([C@H](C)C[C@@H]2CC[C@@H](OCCO)[C@H](OC)C2)CC(=O)[C@H](C)/C=C(\C)[C@@H](O)[C@@H](OC)C(=O)[C@H](C)C[C@H](C)/C=C/C=C/C=C/1C [everolimus] |  |  |  |  |  |  | half of the IC50 values (MDA-MB-231 cells [3]): 14500 nM |
| CS(=O)(=O)CCNCc1ccc(-c2ccc3ncnc(Nc4ccc(OCc5cccc(F)c5)c(Cl)c4)c3c2)o1 [lapatinib] |  |  |  |  |  |  | IC50 (MDA-MB-231 cells [3]; Homo sapiens, MDA-MB-231, cell viability): 2140 nM; half of the IC50 values (MDA-MB-231 cells [3]): 1120 nM |
| O=C(c1cc(Cc2n[nH]c(=O)c3ccccc23)ccc1F)N1CCN(C(=O)C2CC2)CC1 [olaparib] |  |  |  | significantly reduced | significantly reduced | significantly reduced |  |
| CCC/C=C/C/C=C/C=C/C=N/NN=O [triacsin-C, triacsin C] |  |  |  | remained at a similar level compared with the control group | significant decreases | significant decreases |  |
| TVB-3166 |  |  |  | slightly decreased | significantly reduced | significantly reduced |  |
